Some results are limits rather than exact numbers.

In experiment [1] the target is T1, c-Met (cytoplasmic domain) (Homo sapiens, UniProt P08581).
T1 construct: 10 ng/mL c-Met (cytoplasmic domain, Invitrogen Corporation #PV3143); purchased Invitrogen Corporation PV3143
Kind of experiment: c-Met Kinase Assay (same methods as for ALK, with modifications). To be noted: c-Met kinase inhibition, 1 μM ATP; read-out: cMet Activity. It is filed as biochemical. Put shortly: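 Steps: coat wells with PLC-γ (10 μg/mL, Tris-buffered saline); add 10 ng/mL c-Met cytoplasmic domain to initiate; incubate 15 min, 37° C; detect phosphoproduct via Eu-N1 PT66 antibody.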

Experiment [2] addresses T2, baculovirus-expressed ALK (Homo sapiens, UniProt Q9UM73).
T2 construct: host or cells: baculovirus expression system
Description: ALK Kinase Assay (ELISA-type, time-resolved fluorescence). The class given is biochemical. To be noted: ALK kinase inhibition, 1 μM ATP; read-out: ALK Activity. In outline: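 Wells were coated with phospholipase C-γ at 10 μg/mL in Tris-buffered saline. Adding 30 ng/ml enzyme started the reaction, which ran at 37° C for 15 minutes before Eu-N1 PT66 antibody detection. Percent inhibition versus log10 concentration gave IC50 by variable-slope fit.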
(In general: ELISA stands for enzyme-linked immunosorbent assay.)

T1 sequence (P08581 956-1390 limits assumed): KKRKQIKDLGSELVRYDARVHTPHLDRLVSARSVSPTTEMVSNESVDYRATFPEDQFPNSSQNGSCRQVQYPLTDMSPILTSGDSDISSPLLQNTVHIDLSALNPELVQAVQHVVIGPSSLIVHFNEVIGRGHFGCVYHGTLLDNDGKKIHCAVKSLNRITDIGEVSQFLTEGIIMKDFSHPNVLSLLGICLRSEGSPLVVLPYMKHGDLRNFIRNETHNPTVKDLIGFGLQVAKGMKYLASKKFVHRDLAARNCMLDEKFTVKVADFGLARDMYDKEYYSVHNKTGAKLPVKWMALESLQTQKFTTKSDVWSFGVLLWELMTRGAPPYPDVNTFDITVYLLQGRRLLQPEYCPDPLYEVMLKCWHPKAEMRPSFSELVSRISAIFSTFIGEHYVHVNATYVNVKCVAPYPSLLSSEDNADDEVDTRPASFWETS
T2 sequence (Q9UM73 19-1620): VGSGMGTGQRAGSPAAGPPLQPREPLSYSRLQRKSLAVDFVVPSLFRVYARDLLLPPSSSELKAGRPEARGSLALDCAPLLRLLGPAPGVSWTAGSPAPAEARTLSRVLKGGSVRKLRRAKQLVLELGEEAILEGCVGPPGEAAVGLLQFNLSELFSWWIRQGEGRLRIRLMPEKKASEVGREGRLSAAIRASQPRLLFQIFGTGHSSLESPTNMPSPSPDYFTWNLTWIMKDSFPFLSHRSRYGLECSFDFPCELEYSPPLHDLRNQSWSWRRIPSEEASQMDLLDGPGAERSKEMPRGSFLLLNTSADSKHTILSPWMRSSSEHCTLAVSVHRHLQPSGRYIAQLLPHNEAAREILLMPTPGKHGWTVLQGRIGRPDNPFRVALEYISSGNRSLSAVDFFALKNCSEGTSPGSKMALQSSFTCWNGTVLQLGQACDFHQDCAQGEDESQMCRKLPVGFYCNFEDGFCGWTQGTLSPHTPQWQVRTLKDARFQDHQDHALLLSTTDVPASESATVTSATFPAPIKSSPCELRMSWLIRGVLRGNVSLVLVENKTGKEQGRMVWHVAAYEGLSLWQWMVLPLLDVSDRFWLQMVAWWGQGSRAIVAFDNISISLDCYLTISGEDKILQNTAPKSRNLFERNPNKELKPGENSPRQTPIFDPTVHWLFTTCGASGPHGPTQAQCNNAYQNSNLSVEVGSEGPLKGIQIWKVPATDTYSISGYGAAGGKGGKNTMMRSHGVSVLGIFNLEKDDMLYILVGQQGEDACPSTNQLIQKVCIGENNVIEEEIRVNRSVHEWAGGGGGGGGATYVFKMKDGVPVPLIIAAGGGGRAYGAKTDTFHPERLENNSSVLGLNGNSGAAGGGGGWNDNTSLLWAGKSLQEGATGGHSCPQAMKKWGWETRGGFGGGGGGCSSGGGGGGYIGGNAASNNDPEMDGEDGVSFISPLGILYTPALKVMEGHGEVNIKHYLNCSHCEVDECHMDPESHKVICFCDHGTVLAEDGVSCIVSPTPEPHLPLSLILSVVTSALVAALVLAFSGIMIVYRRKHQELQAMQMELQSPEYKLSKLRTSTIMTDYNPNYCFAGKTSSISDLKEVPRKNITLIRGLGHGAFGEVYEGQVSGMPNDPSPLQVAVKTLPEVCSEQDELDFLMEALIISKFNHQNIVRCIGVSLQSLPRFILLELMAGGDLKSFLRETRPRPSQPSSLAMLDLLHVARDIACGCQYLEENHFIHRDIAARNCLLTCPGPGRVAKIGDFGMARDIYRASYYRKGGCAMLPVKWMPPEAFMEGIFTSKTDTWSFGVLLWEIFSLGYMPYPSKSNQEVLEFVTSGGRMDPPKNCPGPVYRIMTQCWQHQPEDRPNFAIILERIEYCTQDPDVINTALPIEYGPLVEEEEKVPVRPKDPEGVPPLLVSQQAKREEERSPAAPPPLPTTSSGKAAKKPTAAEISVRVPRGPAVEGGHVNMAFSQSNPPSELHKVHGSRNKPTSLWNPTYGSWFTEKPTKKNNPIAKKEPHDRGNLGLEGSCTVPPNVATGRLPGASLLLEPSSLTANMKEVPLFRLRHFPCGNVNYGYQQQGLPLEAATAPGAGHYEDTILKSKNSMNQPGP

With `CNC(=O)c1sc(C(C)(C)C)cc1Nc1nc(Nc2ccc3c(c2)CCOC(=O)N3C)ncc1Cl` [Example 1761, 5-tert-Butyl-3-[5-chloro-2-(5-methyl-6-oxo-5,6,8,9-tetrahydro-7-oxa-5-aza-benzocyclohepten-2-ylamino)-pyrimidin-4-ylamino]-thiophene-2-carboxylic acid methylamide], the IC50 in experiment [1] and in experiment [2] was 1000 to 10000 nM in each case.

For `COC(=O)c1sc(-c2ccccc2)c(C)c1Nc1nc(Nc2ccc3c(c2)CCOC(=O)N3C)ncc1Cl` [Example 1762, 3-[5-Chloro-2-(5-methyl-6-oxo-5,6,8,9-tetrahydro-7-oxa-5-aza-benzocyclohepten-2-ylamino)-pyrimidin-4-ylamino]-4-methyl-5-phenyl-thiophene-2-carboxylic acid methyl ester], the IC50 in experiment [1] and in experiment [2] was more than 10000 nM throughout.

For the compound `CC(C)[C@@H](Nc1nc(Nc2ccc3c(c2)CCOC(=O)N3C)ncc1Cl)C(N)=O` [Example 1763, (R)-2-[5-Chloro-2-(5-methyl-6-oxo-5,6,8,9-tetrahydro-7-oxa-5-aza-benzocyclohepten-2-ylamino)-pyrimidin-4-ylamino]-3-methyl-butyramide], the IC50 in experiment [1] and in experiment [2] was 1000 to 10000 nM throughout.

With `CC(C)[C@H](Nc1nc(Nc2ccc3c(c2)CCOC(=O)N3C)ncc1Cl)C(N)=O` [Example 1764, (S)-2-[5-chloro-2-(5-methyl-6-oxo-5,6,8,9-tetrahydro-7-oxa-5-aza-benzocyclohepten-2-ylamino)-pyrimidin-4-ylamino]-3-methyl-butyramide], the values for the IC50 in experiment [1] and in experiment [2] were more than 10000 nM and 1000 to 10000 nM, respectively.

As to `CNC(=O)c1ccccc1N(C)c1nc(Nc2ccc3c(c2)CCOC(=O)N3C)ncc1F` [Example 1765, 2-{[5-Fluoro-2-(5-methyl-6-oxo-5,6,8,9-tetrahydro-7-oxa-5-aza-benzocyclohepten-2-ylamino)-pyrimidin-4-yl]-methyl-amino}-N-methyl-benzamide], the values for the IC50 in experiment [1] and in experiment [2] were 1000 to 10000 nM and more than 10000 nM, respectively.

In the case of `CN1C(=O)OCCc2cc(Nc3ncc(Cl)c(Nc4ccccc4-n4cccn4)n3)ccc21` [Example 1766, 2-[5-Chloro-4-(2-pyrazol-1-yl-phenylamino)-pyrimidin-2-ylamino]-5-methyl-8,9-dihydro-5H-7-oxa-5-aza-benzocyclohepten-6-one], the values for the IC50 in experiment [1] and in experiment [2] were 100 to 1000 nM and less than 100 nM, respectively.

`CN1C(=O)OCCc2cc(Nc3ncc(Cl)c(Nc4ccccc4-c4cc[nH]n4)n3)ccc21` [Example 1767, 2-{5-Chloro-4-[2-(1H-pyrazol-3-yl)-phenylamino]-pyrimidin-2-ylamino}-5-methyl-8,9-dihydro-5H-7-oxa-5-aza-benzocyclohepten-6-one]: the IC50 is 1000 to 10000 nM in experiment [1] and more than 10000 nM in experiment [2].

As for `CN1C(=O)OCCc2cc(Nc3ncc(Cl)c(Nc4cccc5c4OC(F)(F)O5)n3)ccc21` [Example 1768, 2-[5-Chloro-4-(2,2-difluoro-benzo[1,3]dioxol-4-ylamino)-pyrimidin-2-ylamino]-5-methyl-8,9-dihydro-5H-7-oxa-5-aza-benzocyclohepten-6-one], the IC50 in experiment [1] was 1000 to 10000 nM; in experiment [2] it was 100 to 1000 nM.

In the case of `CN1C(=O)OCCc2cc(Nc3ncc(Cl)c(Nc4cccc5[nH]ncc45)n3)ccc21` [Example 1769, 2-[5-Chloro-4-(1H-indazol-4-ylamino)-pyrimidin-2-ylamino]-5-methyl-8,9-dihydro-5H-7-oxa-5-aza-benzocyclohepten-6-one], the IC50 in experiment [1] and in experiment [2] was 100 to 1000 nM throughout.

Regarding `CNC(=O)c1sc(Cl)c(C)c1Nc1nc(Nc2ccc3c(c2)CCOC(=O)N3C)ncc1Cl` [Example 1770, 5-Chloro-3-[5-chloro-2-(5-methyl-6-oxo-5,6,8,9-tetrahydro-7-oxa-5-aza-benzocyclohepten-2-ylamino)-pyrimidin-4-ylamino]-4-methyl-thiophene-2-carboxylic acid methylamide], the values for the IC50 in experiment [1] and in experiment [2] were less than 100 nM and 100 to 1000 nM, respectively.

`CNC(=O)c1sc(Br)c(C)c1Nc1nc(Nc2ccc3c(c2)CCOC(=O)N3C)ncc1Cl` [Example 1771, 5-Bromo-3-[5-chloro-2-(5-methyl-6-oxo-5,6,8,9-tetrahydro-7-oxa-5-aza-benzocyclohepten-2-ylamino)-pyrimidin-4-ylamino]-4-methyl-thiophene-2-carboxylic acid methylamide]: the IC50 in experiment [1] was less than 100 nM; in experiment [2], 100 to 1000 nM.

In the case of `CNC(=O)c1sc(C)c(C)c1Nc1nc(Nc2ccc3c(c2)CCOC(=O)N3C)ncc1Cl` [Example 1772, 5-Methyl-3-[5-chloro-2-(5-methyl-6-oxo-5,6,8,9-tetrahydro-7-oxa-5-aza-benzocyclohepten-2-ylamino)-pyrimidin-4-ylamino]-4-methyl-thiophene-2-carboxylic acid methylamide], the results for the IC50 in experiment [1] and in experiment [2] were less than 100 nM and 1000 to 10000 nM, respectively.

As for `CNC(=O)c1cccc(OC(F)(F)F)c1Nc1nc(Nc2ccc3c(c2)CCOC(=O)N3C)ncc1Cl` [Example 1773, 2-[5-Chloro-2-(5-methyl-6-oxo-5,6,8,9-tetrahydro-7-oxa-5-aza-benzocyclohepten-2-ylamino)-pyrimidin-4-ylamino]-N-methyl-3-trifluoromethoxy-benzamide], the IC50 is 100 to 1000 nM in experiment [1] and more than 10000 nM in experiment [2].

For the compound `CNC(=O)c1c(Cl)sc(Cl)c1Nc1nc(Nc2ccc3c(c2)CCOC(=O)N3C)ncc1Cl` [Example 1774, 2,5-Dichloro-4-[5-chloro-2-(5-methyl-6-oxo-5,6,8,9-tetrahydro-7-oxa-5-aza-benzocyclohepten-2-ylamino)-pyrimidin-4-ylamino]-thiophene-3-carboxylic acid methylamide], the IC50 was 100 to 1000 nM in experiment [1] and 1000 to 10000 nM in experiment [2].

As to `CNC(=O)c1noc(C)c1Nc1nc(Nc2ccc3c(c2)CCOC(=O)N3C)ncc1Cl` [Example 1775, 4-[5-Chloro-2-(5-methyl-6-oxo-5,6,8,9-tetrahydro-7-oxa-5-aza-benzocyclohepten-2-ylamino)-pyrimidin-4-ylamino]-5-methyl-isoxazole-3-carboxylic acid methyl amide], the IC50 was 1000 to 10000 nM in experiment [1] and more than 10000 nM in experiment [2].

As for `CNC(=O)c1cnn(C)c1Nc1nc(Nc2ccc3c(c2)CCOC(=O)N3C)ncc1Cl` [Example 1776, 5-[5-Chloro-2-(5-methyl-6-oxo-5,6,8,9-tetrahydro-7-oxa-5-aza-benzocyclohepten-2-ylamino)-pyrimidin-4-ylamino]-1-methyl-1H-pyrazole-4-carboxylic acid methylamide], the IC50 in experiment [1] fell in the range of 100 to 1000 nM; in experiment [2], 1000 to 10000 nM.

On to `COCCOc1ccccc1Nc1nc(Nc2ccc3c(c2)CCOC(=O)N3C)ncc1Cl` [Example 1777, 2-{5-Chloro-4-[2-(2-methoxy-ethoxy)-phenylamino]-pyrimidin-2-ylamino}-5-methyl-8,9-dihydro-5H-7-oxa-5-aza-benzocyclohepten-6-one], for which the IC50 in experiment [1] and in experiment [2] was 100 to 1000 nM each time.

Take `COCCOc1cccc(F)c1Nc1nc(Nc2ccc3c(c2)CCOC(=O)N3C)ncc1Cl` [Example 1778, 2-{5-Chloro-4-[2-fluoro-6-(2-methoxy-ethoxy)-phenylamino]-pyrimidin-2-ylamino}-5-methyl-8,9-dihydro-5H-7-oxa-5-aza-benzocyclohepten-6-one]: the IC50 in experiment [1] and in experiment [2] was 100 to 1000 nM each time.

Source of the values: patent publication US8148391B2 (Cephalon, Inc., priority 2006, dated 2012).
